Experimental data taken from patent publication US5472954A, “Cyclodextrin complexation” (priority 1993, dated 1995).
In brackets after ≈: the same amount, converted by molar mass. Read-outs that look alike come from different tables or passages of the source.

Tests used:
[1] = Effect of PVP on the solubilization of drugs in aqueous HPβCD solutions (Example 7); details: for S4 /S3: with vs without 0.25% PVP
[2] = Effect of previously prepared solid HPβCD-polymer complexing agent on solubility (Example 13); assay type: physicochemical
Description: The resultant solutions were heated in sealed containers to 120° C. and maintained at that temperature for 30 minutes, then were lyophilized. The solids thus obtained were ground with a mortar and pestle.
The solid cyclodextrin/polymer products were reconstituted with water to afford solutions containing 9.88% (w/v) HPβCD and 0.12% (w/v) PVP, 0.12% (w/v) or CMC 0.12% (w/v) HPMC. The solubilities (S) of three drugs in these solutions and in an aqueous solution containing 10% (w/v) HPβCD without added polymer were then determined as follows:
An excess amount of each drug was added to each of the four cyclodextrin solutions and the solutions were sonicated in an ultrasonic bath for 3 hours, then allowed to equilibrate for 60 hours at room temperature (23° C.). […] However, by separate preparation of the cyclodextrin/polymer complexing agent as illustrated here, one can readily avoid heating drugs which are unstable at elevated temperature.

[3] = 5% γCD
[4] = Solubility of various drugs: effect of CMC in aqueous HPβCD solutions (Example 1); details: for S4 /S3: 0.25% CMC + 10% HPβCD vs 10% HPβCD
[5] = physchem; details: aqueous 5% (w/v) γcd
[6] = assay type: physicochemical
Excerpt: (2) The apparent stability constants of the drug -cyclodextrin complexes were increased when the polymers were present in the aqueous cyclodextrin complexation media in accord with the present invention. […];

[7] = Dissolution of hydrocortisone from tablets, USP XXII paddle apparatus (Example 10); assay type: physicochemical; details: 3 minutes, 37° C.
Description: After equilibration for 3 days at room temperature, the suspensions were filtered through 0.45 μm membrane filters, the tiltrates were lyophilized and the solid which formed was ground with a mortar and pestle. The amount of hydrocortisone incorporated into the HPβCD complex was determined by HPLC.
Individual disks of 200 mg hydrocortisone-HPβCD complex were compressed in a hydraulic press under vacuum and a force of 1×10^4 kg for 1.5 minutes using a 13 mm (diameter) IR potassium bromide pellet punch.
The dissolution studies were carried out using a USP XXII described paddle apparatus for dissolution rate determination. The release rate was determined at 37±1° C. and 100 rpm by adding one tablet to 900 ml of water. Samples were withdrawn at various time intervals, filtered through 0.45 membrane filters and analyzed by HPLC.

[8] = Transdermal delivery of hydrocortisone in vitro, Franz diffusion cell (Example 15a); assay type: in vitro ADME, hairless mice; details: 0.25% (w/v) PVP vs no PVP, at maximum, HPβCD about 12% w/v
Description: . Female hairless mice were sacrificed by cervical dislocation and their full-thickness skins were removed and placed in Franz diffusion cells of type FDC 400 15FF, diameter 1.5 cm (Vangard International Inc., USA), containing 12.3 ml receptor phase. The receptor phase consisted of phosphate buffer saline pH 7.4 containing 0.3% (w/v) Brij-58™ and 0.4% (v/v) formaldehyde and was stirred with a magnetic bar. The receptor chamber was kept at 37° C. by circulating water through an external jacket. […]. After equilibration for three days, 2.0 ml of the donor phase was applied to the skin surface (the stratum corneum) and the donor chamber covered with Parafilm™ (a paraffin-coated plastic film). Samples of the receptor phase were removed from the cells, at 12 hour intervals, for three days and replaced with fresh buffer solution. The samples were kept frozen until analyzed by HPLC. Each experiment was repeated at least three times. The results depicted in FIG. 4 are the mean values ± standard error of the mean (SE).

[9] = ΔH, ΔS and stability constant (Kc) of drug-HPβCD MS 0.6 complexes, effect of PVP (Example 17); assay type: physicochemical; details: HPβCD MS 0.6 complex
Description: (§1) The effect of polyvinylpyrrolidone (PVP) on the enthalpy (ΔH) and the entropy (ΔS) of the stability constant (Kc) of the drug-cyclodextrin complex was determined.
(§2) An excess amount of the drug was added to water containing 0, 0.1, 0.25 or 0.5% (w/v) PVP and various amounts of HPβCD or HPαCD.

[10] = assay type: physicochemical; details: HPαCD MS 0.6 complex
Description: as §1, §2

[11] = for flux (F) through hairless mouse skin: 37° C., mean ± standard deviation, 4 times

Compound: NC(=O)N1c2ccccc2C=Cc2ccccc21 [Carbamazepine, carbamazepine]
- solubility at 72 h ([1]; 0.25% pvp, 10% hpβcd): 7500 µg/mL (≈ 31700 µM)
- solubility at 72 h ([1]; 10% hpβcd ms 0.7): 6430 µg/mL (≈ 27200 µM)
- solubility at 72 h ([1]; aqueous 0.25% pvp): 310 µg/mL (≈ 1310 µM)
- solubility at 72 h ([1]; water): 110 µg/mL (≈ 466 µM)
- S4 /S3 [1]: 1.17
- solubility ([2]; 9.88% hpbetacd + 0.12% cmc, 9.88% (w/v) HPβCD and 0.12% (w/v) CMC, read-out: S3 solubility): 6660 µg/mL
- solubility ([2]; 9.88% hpbetacd + 0.12% hpmc, 9.88% (w/v) HPβCD and 0.12% (w/v) HPMC, read-out: S4 solubility): 9530 µg/mL
- solubility ([2]; 9.88% hpbetacd + 0.12% pvp, 9.88% (w/v) HPβCD and 0.12% (w/v) PVP, read-out: S2 solubility): 9800 µg/mL
- solubility ([2]; 10% hpbetacd, 10% (w/v) HPβCD, read-out: S1 solubility): 7000 µg/mL (≈ 29600 µM)
- Scp /Sco ([3]; CMC): 1.33
- Scp /Sco ([3]; HPMC): 2.27
- Scp /Sco ([3]; PVP): 2.18
- S4 /S3 [4]: 1.31
- solubility ([4]; 0.25% cmc + 10% hpbetacd): 9200 µg/mL
- solubility ([4]; aqueous 0.25% cmc): 200 µg/mL (≈ 846 µM)
- solubility ([4]; aqueous 10% hpbetacd): 7000 µg/mL (≈ 29600 µM)
- solubility ([4]; water): 110 µg/mL (≈ 466 µM)
- solubility [5]: 490 µg/mL (≈ 2070 µM)

Compound: C[C@@H]1C[C@H]2[C@@H]3CCC4=CC(=O)C=C[C@]4(C)[C@@]3(F)[C@@H](O)C[C@]2(C)[C@@]1(O)C(=O)CO [Dexamethasone, dexamethasone]
- solubility at 72 h ([1]; 0.25% pvp, 10% hpβcd): 8000 µg/mL (≈ 20400 µM)
- solubility at 72 h ([1]; 10% hpβcd ms 0.7): 7530 µg/mL (≈ 19200 µM)
- solubility at 72 h ([1]; aqueous 0.25% pvp): 330 µg/mL (≈ 841 µM)
- solubility at 72 h ([1]; water): 260 µg/mL (≈ 662 µM)
- S4 /S3 [1]: 1.06
- S4 /S3 [4]: 1.04
- solubility ([4]; 0.25% cmc + 10% hpbetacd): 8750 µg/mL
- solubility ([4]; aqueous 0.25% cmc): 330 µg/mL (≈ 841 µM)
- solubility ([4]; aqueous 10% hpbetacd): 8430 µg/mL (≈ 21500 µM)
- solubility ([4]; water): 260 µg/mL (≈ 662 µM)
- increase in apparent stability constant [6]: about 26%

Compound: C[C@]12CCC(=O)C=C1CC[C@@H]1[C@@H]2[C@@H](O)C[C@@]2(C)[C@H]1CC[C@]2(O)C(=O)CO [Hydrocortisone, hydrocortisone]
- hydrocortisone dissolved ([7]; HPβCD complex formed without CMC, average of four): 68.3%
- hydrocortisone dissolved ([7]; HPβCD complex with 0.1% (w/v) CMC): 74.2%
- hydrocortisone dissolved ([7]; HPβCD complex with 0.25% (w/v) CMC): 81.0%
- flux increase with PVP [8]: about 40%
- ΔH ([9]; PVP 0.00% w/v): -4.88 kcal/mol
- ΔS ([9]; PVP 0.00% w/v): -6.2 J mol^-1 K^-1
- ΔH ([9]; PVP 0.10% w/v): -9.8 kcal/mol
- ΔS ([9]; PVP 0.10% w/v): -68.6 J mol^-1 K^-1
- ΔH ([9]; PVP 0.25% w/v): -8.72 kcal/mol
- ΔS ([9]; PVP 0.25% w/v): -56.4 J mol^-1 K^-1
- ΔH ([9]; PVP 0.50% w/v): -9.27 kcal/mol
- ΔS ([9]; PVP 0.50% w/v): -64.9 J mol^-1 K^-1
- ΔH ([10]; PVP 0.00% w/v): -7.67 kcal/mol
- ΔS ([10]; PVP 0.00% w/v): -70.2 J mol^-1 K^-1
- ΔH ([10]; PVP 0.10% w/v): -9.39 kcal/mol
- ΔS ([10]; PVP 0.10% w/v): -94.5 J mol^-1 K^-1
- ΔH ([10]; PVP 0.25% w/v): -11.6 kcal/mol
- ΔS ([10]; PVP 0.25% w/v): -124.2 J mol^-1 K^-1
- ΔH ([10]; PVP 0.50% w/v): -8.53 kcal/mol
- ΔS ([10]; PVP 0.50% w/v): -81.9 J mol^-1 K^-1
- flux (F) through hairless mouse skin ([11]; 6% (w/v) HPβCD MS 0.6 and 0.25% (w/v) PVP): 0.158 ± 0.035 μm/cm^2 /h
- transdermal delivery ([11]; PVP-containing sample vs without PVP): over two times faster
- flux (F) through hairless mouse skin ([11]; aqueous 8% (w/v) HPβCD MS 0.6): 0.075 ± 0.023 μm/cm^2 /h
